Reference: US10016382B2, “Method for decreasing skeletal muscle damage and/or oxidative stress in mammals” (LONZA INC., priority 2014, dated 2018)
Several values for one entry are separate records, joined by “and”; a condition that tells them apart may be missing. Identical values can stand only once.

Assays:
Type in all cases: in vivo, dog
Labrador Retrievers [1] = test: Energy expenditure on treadmill (Oxymax open-circuit calorimeter), Example 2 part three; details: for Max energy expenditure / Mean energy expenditure: females
Experimental: Sixteen Labrador Retrievers ranging in age from 1.5 to 3 years were fed low carnitine basal diets with and without added L-carnitine for a 37 week period that included part one and two of the study. Eight (4 male and 4 female) of the test L-carnitine dogs were each fed 3.75 g sugar and 250 mg of L-carnitine, while the other eight dogs (4 male and 4 female) were fed only 4 g of sugar each day for the experimental period. The sixteen test dogs were fed the same diet for parts one, two, and three of the study. During part three of the study, the 16 test dogs were exclusively exercised on the industry sized canine treadmill. Initial Oxymax data was developed for each of the test dogs at various times and speeds in order to determine appropriate speeds on the treadmill required to achieve maximum VO2 concentration. The dogs were run for 15 minutes at 6.5 mph to determine VO2 max. The 16 test dogs were then ran at 50% VO2 max (equivalent to 4 mph) on the treadmill for 30 minutes to determine total energy expenditure (heat production). The system used to acquire information on volume of oxygen consumption and energy expenditure was an Open-Circuit calorimeter, which employed air from the surrounding environment. A mask specially designed for dogs was used to recover the gas sample and ventilate the dog. A small sample was drawn for gas analysis and dried to assure that the readings were made in a sample that was not under the influence of water vapor air exiting the chamber. The O2 and CO2 sensors were connected to software, and instant values of O2 and CO2 were measured. The 16 test dogs (8 L-carnitine dogs, 4 male and 4 female, and 8 control dogs, 4 male and 4 female) were exercised at a warm up speed of 2 mph for 5 minutes prior to running at VO2 max for 15 minutes at 6.5 mph. The next week, the test dogs ran again at a warm up speed of 2 mph for 5 minutes and then at 50% VO2 max for 30 minutes at 4 mph. Energy expenditure was calculated using the formula for dogs (EE (kcal/d)=3.94 VO2+1.11 V CO2) (Weir, […]). The maximum and mean energy expenditure was also calculated. Energy expenditure was reported at Kcal/metabolic body weight (Kg^0.75)/d as normally expressed in the literature for dogs.

canine myoglobin = test: Serum canine myoglobin, Example 2 part one; details: for Serum myoglobin: Ex.2 part one, 250 mg/d; for Myoglobin: serum
Experimental: Twenty-four hours after test dogs ran the last 15 mile endurance run, serum samples were taken to evaluate biomarkers for muscle damage and antioxidant status. Blood samples were taken 1) just prior to the beginning of the study; 2) 1 day prior to running the final 15 mile run on the 14th week; 3) 1 hour immediately following the 15 mile run; and 4) 24 hours following the final 15 mile run. After a blood sample was drawn, it was allowed to clot for 30 minutes at 25° C. before being centrifuged for 15 minutes at 2000 g at 4° C. Serum was aliquoted into 0.65 mL microcentrifuge tubes and stored at −80° C. until being assayed at the end of the study for creatine kinase, canine myoglobin, thiobarbituric acid reactive substances (TBARS), and total antioxidant capacity (TAC) using the commercially available kits described in Example 1.

Labrador Retrievers [2] = test: Time of final 15 mile run, Example 2 part one (14 week crossover study); details: Ex.2 part one, 250 mg/d, 15 mile run at end of 14 week study, mean ± SEM
Experimental: Part One: For part one of the study, fifty-six Labrador Retrievers were divided into two equal groups of 28 (14 males, 14 females) based on gender, BW, genetics, age, excitement level, frame size, and lean body mass. The dogs were out of a minimum of 10 different bitches and at least as many sires. Prior to the start of the study, the dogs were tested for lean mass, muscle damage, and antioxidant status as described in Example 1. In addition to the low carnitine basal diet, twenty-eight of the Labs received 250 mg/day of L-carnitine (batch D23013) and 3.75 g/d of sugar, while twenty-eight of the Labs received 4 g/d of sugar. Both the L-carnitine and control performance dogs were put through a weekly running program consisting of two evenly distributed endurance runs. Groups ranging between 6 and 10 dogs were run together, including both treatments in each group. The endurance runs increased incrementally by 0.5 miles per week (5 miles/session increasing to 10 miles per session over an 11 week period). The dogs were allowed a 1 day rest between runs and a 3 day rest before a scheduled exercise distance increase. The dogs were put through maintenance runs of 5 miles twice in the 12th week and then 2 miles twice in the 13th week. All dogs had at least 4 days of rest prior to the final 15 miles run in the 14th week. Each performance dog wore the Actical activity monitor and GPS tracking collar during the last 15 mile endurance run. The final run was conducted in a manner analogous to that of Example 1. All activity was accurately and precisely calculated using the GPS tracking monitors. Immediately following the 15 mile endurance run, each dog was placed in a kennel and evaluated for recovery time in body temperature (every 15 minutes for 2 hours) and heart rate (every 2 minutes for up to 20 minutes until basal beats per minute (BPM) was reached). Body temperature and heart rate were measured as described in Example 1.

[3] = Ex.2 part three, 250 mg/d, 6.5 mph (VO2 max)
[4] = Ex.2 part three, 250 mg/d, 50% VO2 max (4 mph, 30 min)
[5] = combined speeds 4.0 and 6.5 (50% VO2 Max and VO2 Max), diet main effect, both genders
[6] = combined speeds 4.0 and 6.5 (50% VO2 Max and VO2 Max), female dogs
[7] = combined speeds 4.0 and 6.5 (50% VO2 Max and VO2 Max), male dogs
[8] = treadmill speed 4 for 30 min (50% VO2 Max), diet main effect, both genders
[9] = treadmill speed 4 for 30 min (50% VO2 Max), female dogs
[10] = treadmill speed 4 for 30 min (50% VO2 Max), male dogs
[11] = treadmill speed 6.5 for 15 min (VO2 Max), diet main effect, both genders
[12] = treadmill speed 6.5 for 15 min (VO2 Max), female dogs
[13] = treadmill speed 6.5 for 15 min (VO2 Max), male dogs

Compound: C[N+](C)(C)C[C@H](O)CC(=O)[O-] [L-carnitine]
- Additional heat expenditure vs non-L-carnitine diet (Labrador Retrievers [1]; Ex.2 part three, 250 mg/d, female running at 50% of VO2 Max): 122 kcal/kg BW^0.75/d
- Max energy expenditure (Labrador Retrievers [1]; [3]): 961 kcal/kgBW^0.75/d
- Mean energy expenditure (Labrador Retrievers [1]; [3]): 815 kcal/kgBW^0.75/d
- Max energy expenditure (Labrador Retrievers [1]; [4]): 794 kcal/kg^0.75/d
- Mean energy expenditure (Labrador Retrievers [1]; [4]): 598 kcal/kg^0.75/d
- Max and mean energy expenditure vs low carnitine dogs (Labrador Retrievers [1]; Ex.2 part three, 250 mg/d, males, Tables 35 and 36): not significantly different
- Quantity of low Carnitine basal food saved (Labrador Retrievers [1]; Ex.2 part three, 250 mg/d, working female running at 50% VO2 Max (4 mph) for one hour): 15.18 g
- Max EE (Labrador Retrievers [1]; [5]): 793 Kcal/Kg^0.75/d
- Mean EE (Labrador Retrievers [1]; [5]): 675 Kcal/Kg^0.75/d
- Max EE (Labrador Retrievers [1]; [6]): 838 Kcal/Kg^0.75/d
- Mean EE (Labrador Retrievers [1]; [6]): 679 Kcal/Kg^0.75/d
- Max EE (Labrador Retrievers [1]; [7]): 748 Kcal/Kg^0.75/d
- Mean EE (Labrador Retrievers [1]; [7]): 671 Kcal/Kg^0.75/d
- Max EE (Labrador Retrievers [1]; [8]): 716 Kcal/Kg^0.75/d
- Mean EE (Labrador Retrievers [1]; [8]): 576 Kcal/Kg^0.75/d
- Max EE (Labrador Retrievers [1]; [9]): 794 a Kcal/Kg^0.75/d
- Mean EE (Labrador Retrievers [1]; [9]): 598 a Kcal/Kg^0.75/d
- Max EE (Labrador Retrievers [1]; [10]): 637 ab Kcal/Kg^0.75/d
- Mean EE (Labrador Retrievers [1]; [10]): 554 ab Kcal/Kg^0.75/d
- Max EE (Labrador Retrievers [1]; [11]): 909 Kcal/Kg^0.75/d
- Mean EE (Labrador Retrievers [1]; [11]): 801 Kcal/Kg^0.75/d
- Max EE (Labrador Retrievers [1]; [12]): 961 Kcal/Kg^0.75/d
- Mean EE (Labrador Retrievers [1]; [12]): 815 Kcal/Kg^0.75/d
- Max EE (Labrador Retrievers [1]; [13]): 858 Kcal/Kg^0.75/d
- Mean EE (Labrador Retrievers [1]; [13]): 788 Kcal/Kg^0.75/d
- Serum myoglobin (canine myoglobin; post-run 1 hour): 23.83 ng/mL
- Serum myoglobin (canine myoglobin; post-run 24 hour): 9.25 ng/mL
- Myoglobin (canine myoglobin; FEMALES, Baseline): 17.33 ± 4.7 ng/mL
- Myoglobin (canine myoglobin; FEMALES, Post-Run 1 Hr): 25.19 ± 4.25 ng/mL
- Myoglobin (canine myoglobin; FEMALES, Post-Run 24 Hr): 8.08 ± 2.83 ng/mL
- Myoglobin (canine myoglobin; FEMALES, Pre-Run): 4.88 ± 1.24 ng/mL
- Myoglobin (canine myoglobin; MALES, Baseline): 22.22 ± 6.92 ng/mL
- Myoglobin (canine myoglobin; MALES, Post-Run 1 Hr): 22.46 ± 4.41 ng/mL
- Myoglobin (canine myoglobin; MALES, Post-Run 24 Hr): 4.41 ± 0.64 ng/mL
- Myoglobin (canine myoglobin; MALES, Pre-Run): 8.69 ± 3.25 ng/mL
- Myoglobin (canine myoglobin; Whole Groups, Baseline): 19.78 ± 4.13 ng/mL
- Myoglobin (canine myoglobin; Whole Groups, Post-Run 1 Hr, Post-Run 1 Hr): 23.83 ± 3.02 ng/mL
- Myoglobin (canine myoglobin; Whole Groups, Post-Run 24 Hr, Post-Run 24 Hr): 6.25 ± 1.47 ng/mL
- Myoglobin (canine myoglobin; Whole Groups, Pre-Run): 6.78 ± 1.74 ng/mL
- Final Run Time (Labrador Retrievers [2]; Female): 73.7 ± 0.86 min
- Final Run Time (Labrador Retrievers [2]; Male): 76.11 ± 1.64 min
- Final Run Time (Labrador Retrievers [2]; both sexes): 74.90 min and 74.9 ± 0.94 min
